Experimental data published in patent publication US11554105B2, “Combinations of artemisinins, BCL-2 inhibitors, and kinase inhibitors for cancer treatment” (UNIVERSITY OF MARYLAND, BALTIMORE, priority 2018, dated 2023).
Like-named read-outs stand apart in the source and are kept apart here. Marks after values point to notes of the source that are not given here.

How the values were obtained:
[1] = system: MOLM14, KOPN8 and RCH-ACV cell lines; assay: Kinase inhibitor drug combination screen, summary over the three cell lines; settings: for No. Cell Lines synergistically inhibited by drug 1 combined with AS and/or ART-838: >10% growth inhibition over the Bliss prediction, of three cell lines; for synergy with either AS or ART-838: growth inhibition of human leukemia cell lines
Procedure: Plates (3×384-well per set) contained 7 graded concentrations of each drug at 2× final concentration in culture media in 25 μl/well. […] Cells were plated such that each well contained 2500 cells (MOLM14) or 5000 cells (KOPN8 and RCH-ACV). […] Each plate contained two positive control wells used for background subtraction. Each plate also contained 45 wells without any drug. The background-subtracted absorbance for each well was normalized to the average of the no-drug wells from the corresponding vehicle plate.
Hits were ranked by the observed inhibition over the Bliss independence prediction.
Combinations with positive values for this Bliss difference were considered synergistic, values near zero, additive, and negative values, antagonistic.

MOLM14 cells [2] = assay: alamarBlue cytotoxicity assay, single drugs, 48 h; type: cell-based; settings: Homo sapiens, MOLM-14, MOLM14, 48 h, means of at least three experiments
Procedure: Cytotoxicity was assessed using alamarBlue assays (Life Technologies, Grand Island, N.Y.; used for IC50 determinations and all drug combinations except the drug combination screen (method described separately below)) or Trypan Blue dye exclusion (Life Technologies, Grand Island, N.Y.; used for experiments using inhibitors that could interfere with alamarBlue assay performance (NAC, Tiron, DFO)).
(§1) Cell lines were seeded in 96-well tissue culture plates at 10^4 cells per well (myeloid leukemia lines) or 2×10^4 cells per well (lymphoid leukemia lines) in culture medium, followed by addition of drugs at the indicated concentrations. 2-4 wells per plate containing media-only were included for background subtraction. Peripheral wells were filled with sterile water to minimize the effects of evaporation.
Results were normalized to cells treated with vehicle (0.5% DMSO) alone. IC50s were calculated using CompuSyn software and represent the means of at least three experiments performed in triplicate.

[3] = system: mitochondrial superoxide in MOLM14 cells; assay: Mitochondrial superoxide (MitoSOX Red, flow cytometry); type: cell-based, human; settings: 16 h; for mitochondrial superoxide generation, drug alone: 2.25× approximate 48 h IC50, MitoSox MFI; for effect of the drug on AS-induced superoxide: drug combined with AS, each at 2.25× approximate 48 h IC50; for effect of the drug on ART-838-induced superoxide: drug combined with ART-838, each at 2.25× approximate 48 h IC50
Procedure: FIGS. 4A-4D. Effects of ART-838- and AS-containing drug combinations on MOLM14 growth and superoxide generation. […] CIs were computed as described above. CI<1 indicates synergy, CI=1, additivity, CI>1, antagonism. […] Cells were then loaded with 5 μM MitoSox for 30 min, washed, and analyzed by flow cytometry for MitoSox fluorescence (indicating mitochondrial superoxide) in the FL2 channel. Mean fluorescence intensity (MFI) was normalized to that of vehicle control (0.5% DMSO) with no pretreatment (100%, lower dotted lines). Upper dotted lines show MFI of ART-838- or AS-treated cells. Error bars represent the SEM of three independent experiments.
Cells were pretreated with NAC, Tiron, DFO, or vehicle then treated with AS, ART-838, or vehicle, as described above, then following a 16-hour drug treatment, cells were loaded with 5 μM MitoSOX Red (Invitrogen, Carlsbad, Calif.) for 30 minutes at 37° C. with 5% CO2, then analyzed using the FL2 channel of an Accuri C6 flow cytometer.
As both ART-838 and AS increased mitochondrial superoxide, and many antineoplastic drugs induce ROS generation, mitochondrial superoxide levels of MOLM14 cells treated with each of the above six antileukemic drugs were evaluated, alone and in combination with ART-838 or AS. All six drugs induced mitochondrial superoxide, although to a much lesser extent than did ART-838 (FIG. 4B) or AS (FIG. 4D).

[4] = system: MOLM14-luc AML xenografts; assay: Subcutaneous MOLM14-luc xenograft growth, ARA with ART-838; type: in vivo, NSG mice; settings: tumor size on day 24; Ara-C 40 mg/kg/d i.p., ART-838 200 mg/kg/d p.o.
Procedure: Ara-C (40 mg/kg/d) was given i.p. on day 17, 18, 19, 20, 21 and 24. […] Mouse tumors were measured on the indicated days.
Highly immunodeficient NSG mice, obtained originally from Jackson Laboratory (Bar Harbor, Me.), were bred and housed in the UMSOM animal facilities, and handled in a laminar flow hood under aseptic conditions. […] For the human AML xenograft model, 6-12-week-old male NSG mice (>20 g) were transplanted sc with MOLM14-luc cells on day 0 and drug-treated via oral gavage, as specified in legend. Mice were monitored daily and euthanized when tumors reached an estimated mass of 2000 mg (using the formula: [length×width2]/2, assuming density=1 mg/mm3) [64].
Palpable tumors (approximately 100 mg tumor mass) appeared in mice about 2 weeks after transplantation. Mouse tumors were measured with calipers on the indicated days.

MOLM14 cells [5] = assay: Chou-Talalay drug combination analysis (alamarBlue) of AS or ART-838 with antileukemic drugs; type: cell-based, human; settings: simultaneous 48 h, each drug at 2.25× single-drug IC50, CI<1 synergy, =1 additivity, >1 antagonism
Procedure: For each two-drug pair, dose-response curves were generated for each drug individually and for the two drugs combined. […] This design is based on the recommendation of Chou that combination experiments be performed with drugs combined in an equipotent ratio based on their respective single-drug IC50 values. Following a 48-hour incubation with each drug or drug pair, cytotoxicity assays were performed using alamarBlue as described above.
Each set of drug combinations was tested in at least three independent experiments, each in triplicate.
Sequences are depicted at the bottom of FIG. 5.

MOLM14 cells [6] = assay: Combinations of AS, ART-838 or DHA with ABT-199, ABT-263 or ABT-737 (alamarBlue, 48 h); type: cell-based; settings: Homo sapiens, MOLM-14; for inhibition at 0.037 µM: MOLM14
Procedure: FIG. 12. […] Then cytotoxicity was evaluated by alamarBlue assays. Each experiment was performed in triplicate.
MOLM14 or KOPN8 cells were seeded in 96-well plates as described above for alamarBlue assays. […] AlamarBlue assays were performed as described above. Each set of drugs or drug combinations was tested in triplicate. Chou-Talalay drug combination analysis was performed as above.

human AML cell lines = assay: In vitro efficacies of artemisinin derivatives against human AML cell lines; type: cell-based
Procedure: as §1
A novel trioxane dimer allyloxime-631 (ART631) has been designed to further extend in vivo T1/2 without sacrificing antimalarial activity.

in vivo = settings: NRG (NOD-Rag1null IL2rgnull), mouse, in vivo, po
Source text: FIG. 24. Concentration-time profile for 2C-ARTs with PK parameters.
FIG. 25A-25C. […] NOD-Rag1^nullIL2rg^null (NRG) mice were transplanted IV with Luc-labelled MV4; 11 cells on d10. […] FIG. 25A) MTD cyclic drug treatment schema.

## O=C(Nc1cccc(C(F)(F)F)c1)Nc1cc(S(=O)(=O)NC2CC2)ccc1-c1ccsc1 [AGI6780]
[1]
  No. Cell Lines synergistically inhibited by drug 1 combined with AS and/or ART-838: 2/3**

## Nc1ccn([C@@H]2O[C@H](CO)[C@@H](O)[C@@H]2O)c(=O)n1 [ARA, cytarabine]
MOLM14 cells [2]
  IC50: 286 nM
[3]
  mitochondrial superoxide generation, drug alone: induced mitochondrial superoxide generation
  effect of the drug on AS-induced superoxide: further enhanced
[4]
  tumor growth inhibition, ARA plus ART-838 versus either drug alone: inhibited tumor growth substantially more than did either drug alone

## CN(C)CC[C@H](CSc1ccccc1)Nc1ccc(S(=O)(=O)NC(=O)c2ccc(N3CCN(Cc4ccccc4-c4ccc(Cl)cc4)CC3)cc2)cc1[N+](=O)[O-] [ABT-737]
[1]
  No. Cell Lines synergistically inhibited by drug 1 combined with AS and/or ART-838: 3/3
  synergy with either AS or ART-838: Particularly strong synergy

## C[C@]12O[C@H](C[C@]1(O)CO)n1c3ccccc3c3c4c(c5c6ccccc6n2c5c31)CNC4=O [LES, lestaurtinib]
MOLM14 cells [5]
  combination index (CI) of the drug combined with AS: 1.5

## CCc1cc(Nc2nccc(-c3c(-c4ccc(OC)c(C(=O)Nc5c(F)cccc5F)c4)nc4ccccn34)n2)c(OC)cc1N1CCC(N2CCN(S(C)(=O)=O)CC2)CC1 [GSK-1904529A]
[1]
  No. Cell Lines synergistically inhibited by drug 1 combined with AS and/or ART-838: 3/3

## Cc1ccc(S(=O)(=O)OCC(=O)Nc2ccc(C(=O)O)c(O)c2)cc1 [S31-201]
[1]
  No. Cell Lines synergistically inhibited by drug 1 combined with AS and/or ART-838: 2/3

## Nc1ncnc2c1c(-c1cccc(OCc3ccccc3)c1)cn2C1CC(CN2CCCC2)C1 (centres unmarked) [NVP-ADW742]
[1]
  No. Cell Lines synergistically inhibited by drug 1 combined with AS and/or ART-838: 2/3

## COc1ccc(COc2ccc(Cc3cnc(N)nc3N)cc2OC)cc1 [GW-2580]
[1]
  No. Cell Lines synergistically inhibited by drug 1 combined with AS and/or ART-838: 2/3

## C[C@@H](Oc1cc(-c2cnn(C3CCNCC3)c2)cnc1N)c1c(Cl)ccc(F)c1Cl [Crizotinib]
[1]
  No. Cell Lines synergistically inhibited by drug 1 combined with AS and/or ART-838: 2/3**

## CC1(C)CCC(CN2CCN(c3ccc(C(=O)NS(=O)(=O)c4ccc(NCC5CCOCC5)c([N+](=O)[O-])c4)c(Oc4cnc5[nH]ccc5c4)c3)CC2)=C(c2ccc(Cl)cc2)C1 [ABT-199, venetoclax]
MOLM14 cells [6]; 37 nM ABT-199 + 25 nM ART-838, read-out: growth inhibition, ABT-199 together with ART-838
  inhibition at 0.037 µM: 100%
MOLM14 cells [6]; 37 nM ABT-199 + 825 nM AS, read-out: growth inhibition, ABT-199 together with AS
  inhibition at 0.037 µM: 100%
[1]; average of 3/3 cell lines
  average inhibition over the Bliss predictions, ABT-199 plus ART-838: 21%
  average inhibition over the Bliss predictions, ABT-199 plus AS: 17%

## Cn1cc(-c2ccc3nnc(C(F)(F)c4ccc5ncccc5c4)n3n2)cn1 [JNJ-38877605]
[1]
  No. Cell Lines synergistically inhibited by drug 1 combined with AS and/or ART-838: 2/3

## COc1cc([C@@H]2c3cc4c(cc3[C@@H](O[C@@H]3O[C@@H]5CO[C@@H](C)O[C@H]5[C@H](O)[C@H]3O)[C@H]3COC(=O)[C@H]23)OCO4)cc(OC)c1O [ETO, etoposide]
MOLM14 cells [2]
  IC50: 242 nM
[3]
  mitochondrial superoxide generation, drug alone: induced mitochondrial superoxide generation
  effect of the drug on ART-838-induced superoxide: further enhanced
  effect of the drug on AS-induced superoxide: further enhanced

## COc1cccc2c1C(=O)c1c(O)c3c(c(O)c1C2=O)C[C@@](O)(C(=O)CO)C[C@@H]3O[C@H]1C[C@H](N)[C@H](O)[C@H](C)O1 [DOX, doxorubicin]
[3]
  mitochondrial superoxide generation, drug alone: induced mitochondrial superoxide generation
  effect of the drug on ART-838-induced superoxide: further enhanced
  effect of the drug on AS-induced superoxide: further enhanced

## O=S(=O)(NCCNC/C=C/c1ccc(Br)cc1)c1cccc2cnccc12 [H-89]
[1]
  No. Cell Lines synergistically inhibited by drug 1 combined with AS and/or ART-838: 2/3

## C[C@H]1[C@H](OC(=O)CCC(=O)O)O[C@@H]2O[C@@]3(C)CC[C@H]4[C@H](C)CC[C@@H]1[C@@]24OO3 [AS, artesunate]
[3]
  mitochondrial superoxide generation, drug alone: induced mitochondrial superoxide generation
MOLM14 cells [6]; MOLM14 (AML) cell line
  IC50: 825 nM
Human AML cell lines; median over the human AML cell lines tested (11 for AS and ART838, 4 for ART631), read-out: IC50 median
  IC50: 1720 nM
Human AML cell lines; range over the human AML cell lines tested (11 for AS and ART838, 4 for ART631), read-out: IC50 range
  IC50: 796 to 6260 nM
In vivo
  MTD at 5 d: 200 mg/kg/day

## CC1(C)CCC(c2ccc(Cl)cc2)=C(CN2CCN(c3ccc(C(=O)NS(=O)(=O)c4ccc(N[C@H](CCN5CCOCC5)CSc5ccccc5)c(S(=O)(=O)C(F)(F)F)c4)cc3)CC2)C1 [ABT-263, navitoclax]
[1]
  synergy with either AS or ART-838: Particularly strong synergy
